Several values for one entry are separate records, joined by “and”; a condition that tells them apart may be missing. Equal values may be shown once.
System: T47D cells
Assay: T47D cell proliferation assay (BrdU incorporation)
Format: cell-based
Conditions: half-maximal increase in BrdU incorporation in T47D cells; individual studies
Description: 3. T47D Cell Proliferation Assay
The objective of this assay is the determination of progestational and antiprogestational potency by using a cell proliferation assay in T47D cells. A compound's effect on DNA synthesis in T47D cells is measured.
DMEM:F12 (1:1) (GIBCO, BRL) supplemented with 10% (v/v) fetal bovine serum (not heat-inactivated), 100 U/ml penicillin, […], and 2 mM GlutaMax (GIBCO, BRL).
Minimum Essential Medium (MEM) (#51200-038GIBCO, BRL) phenol red-free supplemented with 0.5% charcoal stripped fetal bovine serum, 100 U/ml penicillin, 200 mg/ml streptomycin, and 2 mM GlutaMax (GIBCO, BRL).
Stock T47 D cells are maintained in growth medium. For BrdU incorporation assay, cells are plated in 96-well plates (Falcon, Becton Dickinson Labware) at 10,000 cells/well in growth medium. […]
At the end of BrdU labeling, the medium is removed and BrdU incorporation is measured using a cell proliferation ELISA kit (#RPN 250, Amersham Life Science) according to manufacturer's instructions. […] Then 25 μl of 1 M sulfuric acid is added to each well to stop color reaction and optical density is read in a plate reader at 450 nm within 5 min.
Square root-transformed data are used for analysis of variance and nonlinear dose response curve fitting for both agonist and antagonist modes. […] EC50 or IC50 values are calculated from the retransformed values. […]

EC50	Compound
0.017 nM and 0.014 nM and 0.019 nM	C[C@H](O)C(=O)[C@@]1(C)CC[C@H]2[C@@H]3CCC4=CC(=O)CCC4=C3CC[C@@]21C [Trimegestone]
0.019 nM	CC(=O)O[C@]1(C(C)=O)CC[C@H]2[C@@H]3C[C@H](C)C4=CC(=O)CC[C@]4(C)[C@H]3CC[C@@]21C [MPA, medroxyprogesterone acetate]

Source: US6358948B1 (American Home Products Corporation, priority 1999, dated 2002)
